pIC50: −log10 of the molar value.
Biological target: KRasG12D (Homo sapiens, UniProt P01116, G12D)
Test: KRAS inhibitory activity test, TR-FRET (inhibition of binding of KRasG12D to GTP, SOS/GTP nucleotide exchange)
Type: biochemical
Conditions: read-out: IC50 values of the compounds for inhibiting KRAS enzymes, G12D
Description: • 1. […] Reagent Preparation: • a. Storage Reagents:
Prepare a 1L solution by mixing 20mL of 1000mM HEPES, 20mL of 500mM EDTA, 10mL of 5M sodium chloride, 0.1mL of 100% Tween 20, and 949.9mL of water. Sterilize by filtration and store at 4°C.
Prepare a 1L solution by mixing 20mL of 1000mM HEPES, 10mL of 1000mM magnesium chloride, 30mL of 5M sodium chloride, 0.05mL of 100% Tween 20, and 939.95mL of water. Sterilize by filtration and store at 4°C. 3) KRAS/Bodipy GDP/Tb-SA Mixture: Mix 9.5 µL of 95 µM KRasG12D protein with 440.5 µL of KRAS nucleotide exchange buffer. Incubate at room temperature for 1 hour. Then, mix with 8.4 µL of 17.9 µM Tb-SA, 1.8 µL of 5 mM Bodipy GDP, and 9539.8 µL of KRAS experimental buffer to prepare […]. After mixing, incubate at room temperature for 6 hours and store at -80°C.
• 1) KRAS Enzyme Solution: Mix 73.3 µL of KRAS/Bodipy GDP/Tb-SA mixture with 2126.7 µL of KRAS experimental buffer to prepare a 2200 µL solution. • 2) SOS/GTP Mixture
c. Experimental Procedure: Mix 1.59 µL of 166 µM SOS protein with 198 µL of 100 mM... GTP and 0.41 µL KRAS buffer were prepared to a 2200 µL solution. The stock solution concentration of the control compound was 1 mM, and the stock solution concentration of the test compound was 10 mM. 9 µL of the control compound and the test compound were transferred to a 384-LDV plate. The compound on the LDV plate was 3-fold diluted 10-point using Bravo. 9 nL of the compound on the LDV plate was transferred to the experimental plate using ECHO. 3 µL of a 3 nM Kras/0.5 nM TB-SA/30 nM BodipyGDP mixture and 3 µL of Ras buffer were added to each well of the experimental plate using a Dragonfly autopilot. The plate was centrifuged at 1000 rpm for 1 minute. The plate was incubated at room temperature for 1 hour. 3 µL of 120 nM SOS/9 mM KRAS buffer was added to each well of the experimental plate using a Dragonfly autopilot. The […] was centrifuged at 1000 rpm for 1 minute; the plate was incubated at room temperature for 1 hour; the plate was read and the data were recorded using Envision; the data were analyzed using Excel and Xlfit to calculate the IC50of the test compound. "++++" indicates IC50≤ 10 nM; "+++" indicates 10 nM < IC50≤ 100 nM; "++" indicates 100 nM < IC50≤ 2000 nM; "+" indicates 2000 nM < IC50.

Row | Compound | pIC50
1 | Cc1cc(N)nc([C@H]2Cc3nc(OC[C@@]45CCCN4C[C@H](F)C5)nc(N4C[C@H]5CC[C@@H](C4)N5)c3CS2(=O)=O)c1C(F)(F)F [Compound 3B, (7R)-7-(6-amino-4-methyl-3-(trifluoromethyl)pyridin-2-yl)-4-((1R,5S)-3,8-diazabicyclo[3.2.1]octane-3-yl)-2-(((2R,7AS)-2-fluorotetrahydro-1H-pyrrolazin-7a(5H)-yl)methoxy)-7,8-dihydro-5H-thiopyrano[4,3-d]pyrimidine 6,6-Dioxide] | ≥ 8.00
2 | Cc1cc(N)c(F)c([C@@H]2Cc3nc(OC[C@@]45CCCN4C[C@H](F)C5)nc(N4C[C@H]5CC[C@@H](C4)N5)c3CS2(=O)=O)c1C(F)(F)F [Compound 34A, (7S)-7-(3-amino-2-fluoro-5-methyl-6-(trifluoromethyl)phenyl)-4-((1R,5S)-3,8-diazabicyclo[3.2.1]octane-3-yl)-2-(((2R,7AS)-2-fluorotetrahydro-1H-pyrrolazin-7a(5H)-yl)methoxy)-7,8-dihydro-5H-thiopyrano[4,3-d]pyrimidine 6,6-Dioxide] | ≥ 8.00
3 | CC#Cc1cc(N)c(F)c(C2Cc3nc(OC[C@@]45CCCN4C[C@H](F)C5)nc(N4CC5CCC(C4)N5)c3CS2(=O)=O)c1C(F)(F)F (stereo partly drawn) [Compound 21, 7-(3-amino-2-fluoro-5-(prop-1-yn-1-yl)-6-(trifluoromethyl)phenyl)-4-(3,8-diazabicyclo[3.2.1]octane-3-yl)-2-(((2R,7AS)-2-fluorotetrahydro-1H-pyrrolazin-7a(5H)-yl)methoxy)-7,8-dihydro-5H-thiopyrano[4,3-d]pyrimidine-6,6-dioxide] | ≥ 8.00
4 | Cc1cc(N)c(F)c([C@@H]2Cc3nc(OC[C@@]45CCCN4C[C@H](F)C5)nc(N4C[C@H]5CC[C@@H](C4)N5)c3CS2(=O)=O)c1C(F)(F)F [Compound 35A, (7S)-7-(3-amino-2-fluoro-5-methyl-6-(trifluoromethyl)phenyl)-4-((1R,5S)-3,8-diazabicyclo[3.2.1]octane-3-yl)-2-(((2R,7AS)-2-fluorotetrahydro-1H-pyrrolazin-7a(5H)-yl)methoxy)-7,8-dihydro-5H-thiopyrano[4,3-d]pyrimidine 6,6-Dioxide] | ≥ 8.00
5 | Cc1cc(O)c(F)c([C@@H]2Cc3nc(OC[C@@]45CCCN4C[C@H](F)C5)nc(N4C[C@H]5CC[C@@H](C4)N5)c3CS2(=O)=O)c1C(F)(F)F [Compound 2A, (7S)-4-((1R,5S)-3,8-diazabicyclo[3.2.1]octane-3-yl)-7-(2-fluoro-3-hydroxy-5-methyl-6-(trifluoromethyl)phenyl)-2-(((2R,7AS)-2-fluorotetrahydro-1H-pyrrolazin-7a(5H)-yl)methoxy)-7,8-dihydro-5H-thiopyrano[4,3-d]pyrimidine-6,6-dioxide] | 7.00 to 8.00
6 | C=C1CN2CCC[C@@]2(COc2nc3c(c(N4CC5CCC(C4)N5)n2)CS(=O)(=O)C(c2c(F)c(N)cc(C)c2C(F)(F)F)C3)C1 (stereo partly drawn) [Compound 11, 7-(3-amino-2-fluoro-5-methyl-6-(trifluoromethyl)phenyl)-4-(3,8-diazabicyclo[3.2.1]octane-3-yl)-2-(((S)-2-(methylene)tetrahydro-1H-pyrrolazin-7a(5H)-yl)methoxy)-7,8-d ihydro-5H-thiopyrano[4,3-d]pyrimidine-6,6-dioxide] | ≥ 8.00
7 | C=C1CN2CCC[C@@]2(COc2nc3c(c(N4CC5CCC(C4)N5)n2)CS(=O)(=O)C(c2cc(N)cc(C)c2C(F)(F)F)C3)C1 (some centres unmarked) [Compound 38] | ≥ 8.00
8 | C=C1CN2CCC[C@@]2(COc2nc3c(c(N4CC5CCC(C4)N5)n2)CS(=O)(=O)C(c2c(F)c(N)cc(C#CC)c2C(F)(F)F)C3)C1 (stereo partly drawn) [Compound 22, 7-(3-amino-2-fluoro-5-(prop-1-yn-1-yl)-6-(trifluoromethyl)phenyl)-4-(3,8-diazabicyclo[3.2.1]octane-3-yl)-2-(((S)-2-(methylene)tetrahydro-1H-pyrrolazin-7a(5H)-yl)methoxy)-7,8-dihydro-5H-thiopyrano[4,3-d]pyrimidine-6,6-dioxide] | ≥ 8.00
9 | 7-(3-amino-2-fluoro-5-methyl-6-(trifluoromethyl)phenyl)-4-(1R,5S)-3,8-diazabicyclo [3.2.1]octane-3-yl)-2-(((2R,7AS)-2-fluorotetrahydro-1H-pyrrolazin-7a(5H)-yl)methox y)-7,8-dihydro-5H-thiopyrano[4,3-d]pyrimidine-6,6-dioxide [Compound 30] | ≥ 8.00
10 | CC#Cc1cc(N)c(F)c([C@@H]2Cc3nc(OC[C@@]45CCCN4CC(=C(F)F)C5)nc(N4CC5CCC(C4)N5)c3CS2(=O)=O)c1C(F)(F)F [Compound 23A, (7S)-7-(3-amino-2-fluoro-5-(prop-1-yn-1-yl)-6-(trifluoromethyl)phenyl)-4-(3,8-diazabicyclo[3.2.1]octane-3-yl)-2-(((S)-2-(difluoromethylene)tetrahydro-1H-pyrrolazin-7a(5H)-yl)methoxy)-7,8-dihydro-5H-thiopyrano[4,3-d]pyrimidine-6,6-dioxide] | ≥ 8.00
11 | Cc1cc(O)c(F)c([C@H]2Cc3nc(OC[C@@]45CCCN4C[C@H](F)C5)nc(N4CCC[C@@](C)(O)C4)c3CS2(=O)=O)c1C(F)(F)F [Compound 6B, (7R)-7-(2-fluoro-3-hydroxy-5-methyl-6-(trifluoromethyl)phenyl)-2-(((2R,7AS)-2-fluorotetrahydro-1H-pyrrolazin-7a(5H)-yl)methoxy)-4-((R)-3-hydroxy-3-methylpiperidin-1-yl)-7,8-dihydro-5H-thiopyrano[4,3-d]pyrimidine-6,6-dioxide] | 7.00 to 8.00
12 | (7S)-7-(6-amino-4-methyl-3-(trifluoromethyl)pyridin-2-yl)-2-(((2R,7AS)-2-fluorotetr ahydro-1H-pyrrolazin-7a(5H)-yl)methoxy)-4-((R)-3-hydroxy-3-methylpiperidin-1-yl) -7,8-dihydro-5H-thiopyrano[4,3-d]pyrimidine-6,6-dioxide [Compound 8A] | ≥ 8.00
13 | Cc1cc(O)nc([C@@H]2Cc3nc(OC[C@@]45CCCN4C[C@H](F)C5)nc(N4C[C@H]5CC[C@@H](C4)N5)c3CS2(=O)=O)c1C(F)(F)F [Compound 4A, (7S)-4-((1R,5S)-3,8-diazabicyclo[3.2.1]octane-3-yl)-2-(((2R,7AS)-2-fluorotetrahydro-1H-pyrrolazin-7a(5H)-yl)methoxy)-7-(6-hydroxy-4-methyl-3-(trifluoromethyl)pyridin-2-yl)-7,8-dihydro-5H-thiopyrano[4,3-d]pyrimidine-6,6-dioxide] | ≥ 8.00
14 | Cc1cc(N)cc([C@@H]2Cc3nc(OC[C@@]45CCCN4C[C@H](F)C5)nc(N4CC5CCC(C4)N5)c3CS2(=O)=O)c1C(F)(F)F [Compound 37A] | ≥ 8.00
15 | Cc1cc(N)c(F)c([C@@H]2Cc3nc(OC[C@@]45CCCN4C[C@H](F)C5)nc(N4C[C@H]5CC[C@@H](C4)N5)c3CS2(=O)=O)c1C(F)(F)F [Compound 33A, (7S)-7-(3-amino-2-fluoro-5-methyl-6-(trifluoromethyl)phenyl)-4-((1R,5S)-3,8-diazabicyclo[3.2.1]octane-3-yl)-2-(((2R,7AS)-2-fluorotetrahydro-1H-pyrrolazin-7a(5H)-yl)methoxy)-7,8-dihydro-5H-thiopyrano[4,3-d]pyrimidine 6,6-Dioxide] | ≥ 8.00
16 | Cc1cc(O)c(F)c([C@@H]2Cc3nc(OC[C@@]45CCCN4C[C@H](F)C5)nc(N4CCC[C@@](C)(O)C4)c3CS2(=O)=O)c1C(F)(F)F [Compound 6A, (7S)-7-(2-fluoro-3-hydroxy-5-methyl-6-(trifluoromethyl)phenyl)-2-(((2R,7AS)-2-fluorotetrahydro-1H-pyrrolazin-7a(5H)-yl)methoxy)-4-((R)-3-hydroxy-3-methylpiperidin-1-yl)-7,8-dihydro-5H-thiopyrano[4,3-d]pyrimidine-6,6-dioxide] | ≥ 8.00
17 | 7-(3-amino-2-fluoro-5-methyl-6-(trifluoromethyl)phenyl)-4-(3,8-diazabicyclo[3.2.1]o ctane-3-yl)-2-(((S)-2-(difluoromethylene)tetrahydro-1H-pyrrolazin-7a(5H)-yl)methox y)-7,8-dihydro-5H-thiopyrano[4,3-d]pyrimidine-6,6-dioxide [Compound 9] | ≥ 8.00
